Key:
[1] = system: Daphnia magna; assay: Toxicity in Daphnia magna assessed as […] concentration measured up to 48 hr; type: organism-based
[2] = system: Plutella xylostella; assay: Insecticidal activity against second or third-instar Plutella xylostella (diamondback moth) in compound treated cabbage leaves at 26 degC; type: functional
[3] = Lipophilicity, log P of the compound by HPLC method; type: physicochemical

Compound	EC50 [1] [ppb]	LC90 [2] [ppm]	logP [3]
CN(C(=O)NC(=O)c1c(F)cccc1F)c1ccc(Oc2ccc(C(F)(F)F)cc2Cl)c(F)c1	500	0.04	
CN(C(=O)NC(=O)c1c(F)cccc1F)c1cc(Cl)c(F)c(Cl)c1F	> 500	0.15	
O=C(NC(=O)c1c(F)cccc1F)Nc1cc(Cl)c(Oc2ncc(C(F)(F)F)cc2Cl)c(Cl)c1 [CHLORFLUAZURON]		0.04	5.71
O=C(NC(=O)c1c(F)cccc1F)Nc1ccc(Oc2ccc(C(F)(F)F)cc2Cl)cc1F [FLUFENOXURON]		0.04	
O=C(NC(=O)c1c(F)cccc1F)Nc1cc(Cl)c(OC(F)(F)C(F)F)c(Cl)c1 [HEXAFLUMURON]		0.04	
O=C(NC(=O)c1c(F)cccc1F)Nc1ccc(Cl)cc1 [DIFLUBENZURON]		12.5	
CN(C(=O)Nc1cc(Cl)c(Oc2ncc(C(F)(F)F)cc2Cl)c(Cl)c1)C(=O)c1c(F)cccc1F	> 500	10	7.26
O=C(NC(=O)N(Cc1ccccc1)c1cc(Cl)c(Oc2ncc(C(F)(F)F)cc2Cl)c(Cl)c1)c1c(F)cccc1F		5	
CCN(C(=O)NC(=O)c1c(F)cccc1F)c1cc(Cl)c(Oc2ncc(C(F)(F)F)cc2Cl)c(Cl)c1		0.3	
CN(C(=O)NC(=O)c1c(F)cccc1F)c1ccc(Cl)cc1	> 500	12.5	
CN(C(=O)NC(=O)c1c(F)cccc1F)c1ccc(-c2ccc(Br)cc2)cc1	150	0.04	
O=C(NC(=O)N(CC(F)(F)F)c1cc(Cl)c(Oc2ncc(C(F)(F)F)cc2Cl)c(Cl)c1)c1c(F)cccc1F		1.25	
CC(C)N(C(=O)NC(=O)c1c(F)cccc1F)c1cc(Cl)c(Oc2ncc(C(F)(F)F)cc2Cl)c(Cl)c1		0.8	
CN(C(=O)NC(=O)c1c(F)cccc1F)c1cc(Cl)c(Oc2ncc(C(F)(F)F)cc2Cl)c(Cl)c1	450	0.08	4.21
O=C(NC(=O)c1c(F)cccc1F)Nc1cc(Cl)c(F)c(Cl)c1F [TEFLUBENZURON]		0.02	
CN(C(=O)NC(=O)c1c(F)cccc1F)c1ccc(Oc2ccc(C(F)(F)F)cc2Cl)c(Cl)c1	100	0.04	
CN(C(=O)c1c(F)cccc1F)C(=O)N(C)c1cc(Cl)c(Oc2ncc(C(F)(F)F)cc2Cl)c(Cl)c1	> 500	0.3	4.76

Reference: ChEMBL document CHEMBL3045174, “Synthesis and Insecticidal Activity of Alkylated N-Benzoyl-N-Phenylureas and Their Toxicity to Aquatic Invertebrate” (J Pestic Sci, 1998)
